Experimental data from US20070049564A1 (Wyeth, priority 2005, published 2007).
≈ marks a conversion by molar mass, not a printed value. Read-outs that look alike come from different tables or passages of the source.

How the values were obtained:
Salmonella spp. GC 566 = assay: MIC, broth microdilution; conditions: Salmonella, SPP.GC566, Salmonella spp. GC 566
Staph. aureus Smith = assay: In vitro activity (MIC) against Staph. aureus Smith; assay type: cell-based; conditions: Staphylococcus aureus
S. cholerasius GC 1355 = assay: MIC, broth microdilution; conditions: S. cholerasius GC 1355
E. coli #311 = assay: In vivo activity (oral, iv; ED50) against E. coli in mice; conditions: Escherichia coli
Text: . […] Smith and E. Coli #311 in mammals.
Results of the tests (MIC, oral and IV) are list in Table 7.

E. coli = assay: In vitro activity (MIC) against E. coli (Table 7); assay type: cell-based; conditions: Escherichia coli
Salmonella spp. GC 235 = assay: MIC, broth microdilution; conditions: Salmonella, SPP.GC235, Salmonella spp. GC 235
[1] = test system: E. coli, tet(A-D), efflux; assay: In vitro activity (MIC), strain groups
Enterococcus spp. = assay: In vitro activity (MIC), strain groups; set-up: MIC: unit not given beside the values
[2] = test system: E. coli, tet (M,S,O) Tet (M); assay: In vitro activity (MIC), strain groups; conditions: Human Serum
Streptococcus spp. = assay: In vitro activity (MIC), strain groups; set-up: MIC: unit not given beside the values
[3] = single intravenous dose, mice, Table 7, read-out: ED50 SIV (E. coli)
[4] = single oral dose, mice, Table 7, read-out: ED50 SOD (E. coli)
[5] = single intravenous dose (SIV), read-out: ED50 E. coli #311 SIV
[6] = single oral dose (SOD), read-out: ED50 E. coli #311 SOD

| SMILES | MIC (E. coli) [µg/mL] | MIC (Staph. aureus Smith; Table 6) [µg/mL] | MIC (Staph. aureus Smith; Table 8) [µg/mL] | ED50 (E. coli #311; [3]) [mg/kg] | ED50 (E. coli #311; [4]) [mg/kg] | ED50 (E. coli #311; [5]) [mg/kg] | ED50 (E. coli #311; [6]) [mg/kg] | also measured |
| --- | --- | --- | --- | --- | --- | --- | --- | --- |
| CCCN(CC(=O)Nc1cc(N(C)C)c2c(c1O)C(=O)C1=C(O)[C@]3(O)C(=O)C(C(N)=O)=C(O)[C@@H](N(C)C)[C@@H]3C[C@@H]1C2)C(=O)OCOC(=O)c1ccc(C)cc1 [Example 5, ({[(2-{[(5aR,6aS,7S,10aS)-9-(aminocarbonyl)-4,7-bis(dimethylamino)-1,8,10a,11-tetrahydroxy-10,12-dioxo-5,5a,6,6a,7,10,10a,12-octahydrotetracen-2-yl]amino}-2-oxoethyl)(propyl)amino]carbonyl}oxy)methyl 4-methylbenzoate] | > 64 |  | 1 (≈ 1.31 µM) | 3.17 | > 64 |  |  | MIC (Salmonella spp. GC 566; Mouse Serum pre-incubation): 4 µg/mL (≈ 5.24 µM); MIC (Salmonella spp. GC 566; Water pre-incubation): 64 µg/mL (≈ 83.8 µM); MIC (S. cholerasius GC 1355; Mouse Serum pre-incubation): 16 µg/mL (≈ 20.9 µM); MIC (S. cholerasius GC 1355; Water pre-incubation): > 64 µg/mL; MIC (Salmonella spp. GC 235; Mouse Serum pre-incubation): 2 µg/mL (≈ 2.62 µM); MIC (Salmonella spp. GC 235; Water pre-incubation): 32 µg/mL (≈ 41.9 µM) |
| CCCN(CC(=O)Nc1cc(N(C)C)c2c(c1O)C(=O)C1=C(O)[C@]3(O)C(=O)C(C(N)=O)=C(O)[C@@H](N(C)C)[C@@H]3C[C@@H]1C2)C(=O)OCOC(=O)c1cc(C)cc(C)c1 [Example 26, ({[(2-{[(5aR,6aS,7S,10aS)-9-(aminocarbonyl)-4,7-bis(dimethylamino)-1,8,10a,11-tetrahydroxy-10,12-dioxo-5,5a,6,6a,7,10,10a,12-octahydrotetracen-2-yl]amino}-2-oxoethyl)(propyl)amino]carbonyl}oxy)methyl 3,5-dimethylbenzoate] |  |  | 0.5 (≈ 0.643 µM) |  |  |  |  |  |
| CCCN(CC(=O)Nc1cc(N(C)C)c2c(c1O)C(=O)C1=C(O)[C@]3(O)C(=O)C(C(N)=O)=C(O)[C@@H](N(C)C)[C@@H]3C[C@@H]1C2)C(=O)OCOC(=O)c1ccsc1 [Example 27, ({[(2-{[(5aR,6aS,7S,10aS)-9-(aminocarbonyl)-4,7-bis(dimethylamino)-1,8,10a,11-tetrahydroxy-10,12-dioxo-5,5a,6,6a,7,10,10a,12-octahydrotetracen-2-yl]amino}-2-oxoethyl)(propyl)amino]carbonyl}oxy)methyl thiophene-3-carboxylate] |  |  | 0.12 (≈ 0.159 µM) |  |  | > 2 | > 32 | MIC ([1]; Human Serum): 4-16; MIC ([1]; Mouse Serum): 0.5-1; MIC (Enterococcus spp.; Human Serum): 0.5-2; MIC (Enterococcus spp.; Mouse Serum): 0.12-1; MIC (Enterococcus spp.; water): 0.12-1; MIC [2]: 4-8; MIC (Streptococcus spp.; Human Serum): 0.12-2; MIC (Streptococcus spp.; Mouse Serum): <0.06-0.12; MIC (Streptococcus spp.; water): <0.06-0.12 |
| CCCN(CC(=O)Nc1cc(N(C)C)c2c(c1O)C(=O)C1=C(O)[C@]3(O)C(=O)C(C(N)=O)=C(O)[C@@H](N(C)C)[C@@H]3C[C@@H]1C2)C(=O)OCOC(=O)c1ccc(C(C)(C)C)cc1 [Example 28, ({[(2-{[(5aR,6aS,7S,10aS)-9-(aminocarbonyl)-4,7-bis(dimethylamino)-1,8,10a,11-tetrahydroxy-10,12-dioxo-5,5a,6,6a,7,10,10a,12-octahydrotetracen-2-yl]amino}-2-oxoethyl)(propyl)amino]carbonyl}oxy)methyl 4-tert-butylbenzoate] |  |  | 32 (≈ 39.7 µM) |  |  | > 2 | > 32 |  |
| CCC(C)(C)C(=O)OCOC(=O)N(CC(=O)Nc1cc(N(C)C)c2c(c1O)C(=O)C1=C(O)[C@]3(O)C(=O)C(C(N)=O)=C(O)[C@@H](N(C)C)[C@@H]3C[C@@H]1C2)C(C)(C)C [Example 44, ({[(2-{[(5aR,6aS,7S,10aS)-9-(aminocarbonyl)-4,7-bis(dimethylamino)-1,8,10a,11-tetrahydroxy-10,12-dioxo-5,5a,6,6a,7,10,10a,12-octahydrotetracen-2-yl]amino}-2-oxoethyl)(tert-butyl)amino]carbonyl}oxy)methyl 2,2-dimethylbutanoate] | > 64 | 4 (≈ 5.28 µM) |  | 2.85 | 42.8 | 2.85 | 42.8 |  |
| CC(C)C(=O)OCOC(=O)N(CC(=O)Nc1cc(N(C)C)c2c(c1O)C(=O)C1=C(O)[C@]3(O)C(=O)C(C(N)=O)=C(O)[C@@H](N(C)C)[C@@H]3C[C@@H]1C2)C(C)(C)C [Example 45, ({[(2-{[(5aR,6aS,7S,10aS)-9-(aminocarbonyl)-4,7-bis(dimethylamino)-1,8,10a,11-tetrahydroxy-10,12-dioxo-5,5a,6,6a,7,10,10a,12-octahydrotetracen-2-yl]amino}-2-oxoethyl)(tert-butyl)amino]carbonyl}oxy)methyl 2-methylpropanoate] | 64 (≈ 87.7 µM) | 1 (≈ 1.37 µM) |  | 1.8 | 64 | 1.8 | 64 |  |
| CCCCCCC(=O)OCOC(=O)N(CC(=O)Nc1cc(N(C)C)c2c(c1O)C(=O)C1=C(O)[C@]3(O)C(=O)C(C(N)=O)=C(O)[C@@H](N(C)C)[C@@H]3C[C@@H]1C2)C(C)(C)C [Example 48, ({[(2-{[(5aR,6aS,7S,10aS)-9-(aminocarbonyl)-4,7-bis(dimethylamino)-1,8,10a,11-tetrahydroxy-10,12-dioxo-5,5a,6,6a,7,10,10a,12-octahydrotetracen-2-yl]amino}-2-oxoethyl)(tert-butyl)amino]carbonyl}oxy)methyl heptanoate] | > 64 | 0.25 (≈ 0.324 µM) |  | 1.7 | 29.8 | 1.7 | 29.8 |  |
| CN(C)c1cc(NC(=O)CN(C(=O)OCOC(=O)C2CCCCC2)C(C)(C)C)c(O)c2c1C[C@H]1C[C@H]3[C@H](N(C)C)C(O)=C(C(N)=O)C(=O)[C@@]3(O)C(O)=C1C2=O [Example 50, ({[(2-{[(5aR,6aS,7S,10aS)-9-(aminocarbonyl)-4,7-bis(dimethylamino)-1,8,10a,11-tetrahydroxy-10,12-dioxo-5,5a,6,6a,7,10,10a,12-octahydrotetracen-2-yl]amino}-2-oxoethyl)(tert-butyl)amino]carbonyl}oxy)methyl cyclohexanecarboxylate] | > 64 | 0.5 (≈ 0.649 µM) |  | 1.7 | 29.8 | 2.59 | > 64 |  |
| CN(C)c1cc(NC(=O)CN(C(=O)OCOC(=O)c2ccc(F)cc2)C(C)(C)C)c(O)c2c1C[C@H]1C[C@H]3[C@H](N(C)C)C(O)=C(C(N)=O)C(=O)[C@@]3(O)C(O)=C1C2=O [Example 52, ({[(2-{[(5aR,6aS,7S,10aS)-9-(aminocarbonyl)-4,7-bis(dimethylamino)-1,8,10a,11-tetrahydroxy-10,12-dioxo-5,5a,6,6a,7,10,10a,12-octahydrotetracen-2-yl]amino}-2-oxoethyl)(tert-butyl)amino]carbonyl}oxy)methyl 4-fluorobenzoate] | 8 (≈ 10.2 µM) | 2 (≈ 2.56 µM) |  | 3.78 | 43.7 | 3.78 | 43.7 |  |

The next lines start with results.

| MIC (E. coli) [µg/mL] | MIC (Staph. aureus Smith; Table 6) [µg/mL] | SMILES | MIC (Staph. aureus Smith; Table 8) [µg/mL] | ED50 (E. coli #311; [3]) [mg/kg] | ED50 (E. coli #311; [4]) [mg/kg] | ED50 (E. coli #311; [5]) [mg/kg] | ED50 (E. coli #311; [6]) [mg/kg] | also measured |
| --- | --- | --- | --- | --- | --- | --- | --- | --- |
| > 64 | 8 (≈ 10.6 µM) | CN(C)c1cc(NC(=O)CN(C(=O)OCOC(=O)CC(C)(C)C)C(C)(C)C)c(O)c2c1C[C@H]1C[C@H]3[C@H](N(C)C)C(O)=C(C(N)=O)C(=O)[C@@]3(O)C(O)=C1C2=O [Example 42, ({[(2-{[(5aR,6aS,7S,10aS)-9-(aminocarbonyl)-4,7-bis(dimethylamino)-1,8,10a,11-tetrahydroxy-10,12-dioxo-5,5a,6,6a,7,10,10a,12-octahydrotetracen-2-yl]amino}-2-oxoethyl)(tert-butyl)amino]carbonyl}oxy)methyl 3,3-dimethylbutanoate] |  | 3.1 | 30.3 | 3.1 | 30.3 |  |
|  | 4 (≈ 5.14 µM) | Cc1ccc(C(=O)OCOC(=O)N(CC(=O)Nc2cc(N(C)C)c3c(c2O)C(=O)C2=C(O)[C@]4(O)C(=O)C(C(N)=O)=C(O)[C@@H](N(C)C)[C@@H]4C[C@@H]2C3)C(C)(C)C)cc1 [Example 47] |  |  |  | 3.17 | > 64 |  |
| 64 (≈ 89.4 µM) | 0.25 (≈ 0.349 µM) | CCC(=O)OCOC(=O)N(CC(=O)Nc1cc(N(C)C)c2c(c1O)C(=O)C1=C(O)[C@]3(O)C(=O)C(C(N)=O)=C(O)[C@@H](N(C)C)[C@@H]3C[C@@H]1C2)C(C)(C)C [Example 49, ({[(2-{[(5aR,6aS,7S,10aS)-9-(aminocarbonyl)-4,7-bis(dimethylamino)-1,8,10a,11-tetrahydroxy-10,12-dioxo-5,5a,6,6a,7,10,10a,12-octahydrotetracen-2-yl]amino}-2-oxoethyl)(tert-butyl)amino]carbonyl}oxy)methyl propionate] |  | 2.2 | 49 | 2.2 | 49 |  |
| 32 (≈ 43 µM) | 1 (≈ 1.34 µM) | CC(C)CC(=O)OCOC(=O)N(CC(=O)Nc1cc(N(C)C)c2c(c1O)C(=O)C1=C(O)[C@]3(O)C(=O)C(C(N)=O)=C(O)[C@@H](N(C)C)[C@@H]3C[C@@H]1C2)C(C)(C)C [Example 53, ({[(2-{[(5aR,6aS,7S,10aS)-9-(aminocarbonyl)-4,7-bis(dimethylamino)-1,8,10a,11-tetrahydroxy-10,12-dioxo-5,5a,6,6a,7,10,10a,12-octahydrotetracen-2-yl]amino}-2-oxoethyl)(tert-butyl)amino]carbonyl}oxy)methyl 3-methylbutanoate] |  | 2.25 | 46.9 | 2.25 | 46.9 |  |
